Measured values from patent US5807874A, “Trisbenzimidazoles useful as topoisomerase I inhibitors” (Rutgers, The State University of New Jersey, priority 1995, dated 1998).
Entries after “also recorded” stand apart in the source; their conditions may differ.

What was measured:
[1] = system: calf thymus topoisomerase I; assay: Topoisomerase I-mediated DNA cleavage assay (calf thymus topoisomerase I); type: biochemical; conditions: for Topo I-mediated DNA cleavage (REC, Relative Effective Concentration): concentration relative to Hoechst 33342 (arbitrarily 1) producing the same cleavage on plasmid DNA, calf thymus topoisomerase I; for potency as topoisomerase I inhibitor (in words): compared with Hoechst 33342 or with each other
From the text: DNA topoisomerase I was purified from calf thymus gland as reported previously by B. D. Halligan et al., J. Biol. Chem. 260, 2475 (1985). Plasmid YEpG was also purified by the alkali lysis method followed by phenol deproteination and CsCl/ethidium isopycnic centrifugation as described by T. Mariatis et al., Molecular Cloning, A Laboratory Manual, Cold Spring Harbor Labs, N.Y. (1982) at pages 149-185. The end-labeling of the plasmid was accomplished as previously described by L. F. Liu et al., J. Biol. Chem., 258, 15365 (1983). The cleavage assays were performed as previously reported by A. Y. Chen et al., Cancer Res. 53, 1332 (1993). Human topoisomerase was isolated as a recombinant fusion protein using a T7 expression system.
^b Topoisomerase I cleavage values are reported as REC, Relative
Effective Concentration, i.e. concentrations relative to Hoechst 33342,
whose value is arbitrarily assumed as 1, that are able to produce the sam
cleavage on the plasmid DNA in the presence of calf thymus topoisomerase
I. Cleavage is calculated from the intensity of the strongest Hoechst

tumor cells = assay: Cytotoxicity to tumor cells (cell line not specified); type: cell-based; conditions: for cytotoxicity of 3- and 4-pyridyl versus 2-pyridyl analog (in words): relative to the 2-pyridyl derivative, 14
[2] = system: human MDR1 (P-glycoprotein); assay: MDR1 (P-glycoprotein) substrate, inferred from KB 3-1 versus KB V-1 cytotoxicity; type: cell-based; conditions: inferred from KB 3-1 / KB V-1 IC50 values
Description: The drug sensitive human epidermoid carcinoma KB3-1 cell line (S. Aliyama et al., Somatic Cell Mol. Genet., 11, 117 (1985)) and its vinblastine-selected multidrug-resistant variant KBV-1 cells (D. W. Shen et al., Science, 32, 643 (1986)) were provided by Dr. Michael Gottesmann (National Cancer Institute, Bethesda, Md.). These cells were grown as monolayer cultures at in 5% CO2 and maintained by regular passage in Dulbecco's minimal essential medium supplemented with 10% heat inactivated fetal bovine serum. KBV-1 cells were similarly maintained except they were grown in the presence of 1 μg/ml vinblastine.

KBV-1 cells [3] = assay: MTT cytotoxicity assay, multidrug-resistant KBV-1 (overexpresses MDR1); type: cell-based, human; conditions: KB 3-1 versus KB V-1
Description: (§1) The cytotoxicity was determined using the as MTT-microtiter plate tetrazolinium cytotoxicity assay (MTA) following the procedures of F. Denizot et al., J. Immunol. […] The cytotoxicity assay was performed using 96-well microtiter plates. Cells were grown in suspension at 37° C. in 5% CO2 and maintained by regular passage in RPMI medium supplemented with 10% heat inactivated fetal bovine serum, L-glutamine (2 mM), penicillin (100 U/ml), and streptomycin (0.1 mg/ml). For determination of IC50, cells were exposed continuously with varying concentrations of drug concentrations and MTT assays were performed at the end of the fourth day.
These cells were grown as monolayer cultures at in 5% CO2 and maintained by regular passage in Dulbecco's minimal essential medium supplemented with 10% heat inactivated fetal bovine serum. KBV-1 cells were similarly maintained except they were grown in the presence of 1 μg/ml vinblastine.

CPT-K5 [4] = assay: MTT cytotoxicity assay, camptothecin-resistant CPT-K5; type: cell-based, human
Description: as §1

topoisomerase I = conditions: Hoechst 33342; cited from earlier work
KBV-1 cells [5] = conditions: as reported by A. Y. Chen et al., Adv. Pharmacol. (1994); cited from earlier work
minor groove of DNA = conditions: literature; cited from earlier work
[6] = cited from earlier work
CPT-K5 [7] = conditions: as reported by A. Y. Chen et al., Cancer Res., 53, 1332 (1993); cited from earlier work

c1ccc2[nH]c(-c3ccc4[nH]c(-c5ccc6[nH]cnc6c5)nc4c3)nc2c1 [Compound 10, 2-[2'-(Benzimidazol-5"-yl)benzimidazol-5'-yl]benzimidazole]
Topo I-mediated DNA cleavage (REC, Relative Effective Concentration) [1]: 1.1

N#Cc1ccc2[nH]c(-c3ccc4[nH]c(-c5ccc6[nH]cnc6c5)nc4c3)nc2c1 [Compound 11, 5-Cyano-2-[2'-(benzimidazol-5"-yl)benzimidazol-5'-yl]benzimidazole]
Topo I-mediated DNA cleavage (REC, Relative Effective Concentration) [1]: 1

CCCc1ccc2[nH]c(-c3ccc4[nH]c(-c5ccc6[nH]cnc6c5)nc4c3)nc2c1 [Compound 12, 5-Propyl-2-[2'-(benzimidazol-5"-yl)benzimidazol-5'-yl]benzimidazole]
potency as topoisomerase I inhibitor (in words) [1]: much less active than either 10, 11, or 13 | Topo I-mediated DNA cleavage (REC, Relative Effective Concentration) [1]: 100 | cytotoxicity to tumor cells (in words, general) (tumor cells): weak cytotoxicity

c1ccc(-c2ccc3[nH]c(-c4ccc5[nH]c(-c6ccc7[nH]cnc7c6)nc5c4)nc3c2)cc1 [Compound 13, 5-Phenyl-2-[2'(benzimidazol-5"-yl)benzimidazol-5'-yl]benzimidazole]
substrate for human MDR1 [2]: appears not to be a substrate for human MDR1 | potency as topoisomerase I inhibitor (in words) [1]: approximately one-half as potent as Hoechst 33342 | Topo I-mediated DNA cleavage (REC, Relative Effective Concentration) [1]: 2 | IC50 difference between KB 3-1 and KB V-1 cells (in words) (KBV-1 cells [3]): little difference | effect against camptothecin-resistant CPT-K5 cells (in words) (CPT-K5 [4]): effective against camptothecin-resistant CPT-K5 cells

c1ccc(-c2ccc3[nH]c(-c4ccc5[nH]c(-c6ccc7[nH]cnc7c6)nc5c4)nc3c2)nc1 [Compound 14, 5-(2-Pyridyl)-2-[2'-(benzimidazol-5"-yl)benzimidazol-5'-yl]benzimidazole]
Topo I-mediated DNA cleavage (REC, Relative Effective Concentration) [1]: 3.3 | antifungal activity (Antifungal activity): exhibits antifungal activity

c1cncc(-c2ccc3[nH]c(-c4ccc5[nH]c(-c6ccc7[nH]cnc7c6)nc5c4)nc3c2)c1 [Compound 15, 5-(3-Pyridyl)-2-[2'-(benzimidazol-5"-yl)benzimidazol-5'-yl]benzimidazole]
potency as topoisomerase I inhibitor (in words) [1]: somewhat more active than the 2-pyridyl derivative, 14 | Topo I-mediated DNA cleavage (REC, Relative Effective Concentration) [1]: 2 | cytotoxicity of 3- and 4-pyridyl versus 2-pyridyl analog (in words) (tumor cells): somewhat more active than the 2-pyridyl derivative, 14

c1cc(-c2ccc3[nH]c(-c4ccc5[nH]c(-c6ccc7[nH]cnc7c6)nc5c4)nc3c2)ccn1 [Compound 16, 5-(4-Pyridyl)-2-[2'-(benzimidazol-5"-yl)benzimidazol-5'-yl]benzimidazole]
potency as topoisomerase I inhibitor (in words) [1]: somewhat more active than the 2-pyridyl derivative, 14 | Topo I-mediated DNA cleavage (REC, Relative Effective Concentration) [1]: 2 | cytotoxicity of 3- and 4-pyridyl versus 2-pyridyl analog (in words) (tumor cells): somewhat more active than the 2-pyridyl derivative, 14

N#Cc1ccc2[nH]c(-c3ccc4[nH]cnc4c3)nc2c1 [Compound 19, 5-Cyano-2-(benzimidazol-5'-yl)benzimidazole]
Topo I-mediated DNA cleavage (REC, Relative Effective Concentration) [1]: 1000

CCOc1ccc(-c2nc3cc(-c4nc5cc(N6CCN(C)CC6)ccc5[nH]4)ccc3[nH]2)cc1 [Hoechst 33342, 2'-(4-ethoxyphenyl)-5-(4-methyl-1-piperazinyl)-2,5'-bi-1H-benzimidazole]
topoisomerase I inhibition (literature) (topoisomerase I): inhibitor of topoisomerase I; also recorded: traps the reversible cleavable complex derived from DNA and topoisomerase I | IC50 difference, KB 3-1 as compared to KB V-1 cells (literature) (KBV-1 cells [5]): approximately two-orders of magnitude | binding to DNA (minor groove of DNA): binds to the minor groove of DNA | protonation at physiological pH [6]: extensively protonated at physiological pH | effect against camptothecin-resistant CPT-K5 cells (in words) (CPT-K5 [4]): effective against camptothecin-resistant CPT-K5 cells

CC[C@@]1(O)C(=O)OCc2c1cc1n(c2=O)Cc2cc3ccccc3nc2-1 [camptothecin]
relative resistance of camptothecin (CPT-K5 [7]): 2,500 fold
